The source of these data is patent publication US20090253629A1 (priority 2008, published 2009).

≈ marks a conversion by molar mass, not a printed value. Where “and” joins values, the source holds several entries; their conditions need not be identical. Identical values can stand only once. Like-named read-outs stand apart in the source and are kept apart here.

Assay [1] deals with penicillin-resistant serotype 9V Streptococcus pneumoniae (1395). Format: in vivo, New Zealand white rabbits. The settings on record: for reduction in bacterial burden in the cerebrospinal fluid (Δ log CFU), Average / reduction in bacterial burden in the cerebrospinal fluid (Δ log CFU): Ceftriaxon treatment; for reduction in bacterial burden in the cerebrospinal fluid (Δ log CFU), Average: average of rabbits 7-10; for reduction in bacterial burden in the cerebrospinal fluid (Δ log CFU): individual rabbits 7-10. An excerpt:
(§1) An Isolate of a penicillin-resistant serotype 9V Streptococcus pneumoniae (1395), originally isolated from the CSF of a person with meningitis, was used in the meningitis model. This strain was formerly used for evaluating the effectiveness of treatment of meningitis with Moxifloxacin (see Ostergaard et al., 1998, “Evaluation of moxifloxacin, a new 8-methoxyquinolone, for treatment of meningitis caused by a penicillin-resistant pneumococcus in rabbits”, Antimicrob Agents Chemother 42(7): 1706-1712).
The virulence of the strain was enhanced by passing the bacteria through a mouse peritonitis model. Bacteria from sampled peritoneal fluid were grown on blood agar plates, recovered and diluted in beef-broth with 10% glycerol added and frozen at −80° C.
The bacterial aliquots were thawn and grown on blood-agar plates, suspended in sterile beef-broth to reach an optical density of 3.5 at 540 nm, and subsequently diluted to obtain a final concentration of 1-2×10^6 CFU/ml.
Male New Zealand white rabbits weighing approx. 2500 g was used for the experiments. The rabbits arrived at the facilities 1-2 weeks prior to the experiment to allow for adaptation. They were kept in single cages covered with hay and offered food and water with no restrictions. Veterinarian expertise was available at the laboratory, and the experimental design was approved by the local animal legislation committee.
The rabbit was weighed and anaesthetized with dormicum 0.5 ml/kg (midazolam 5 mg/ml) s.c. and after 10 minutes with hypnorm 0.35 ml/kg (fentanylcitrat+fluanison) i.m.
The ears, scalp and neck of the rabbit were shaved and the skin disinfected. An incision measuring approx. 2 cm was made on the forehead of the rabbit and the scalp was exposed by blunt dissection. 4 bore holes were made demarcating a square and 4 screws were screwed up at right angles to the surface (2.5 to 3 turns). An acrylic helmet, embedding a turnbuckle, was moulded from dental casting material directly onto the scalp of the rabbit and the helmet was cooled under running water. The rabbit was put back into its cage with free access to food and water to rest for 8-10 hours until the time of bacterial inoculation or start of pharmacokinetic treatment study on uninfected rabbits. Analgesia with buprenorfin, 0.1 mg/kg, was given.
The head of the rabbit was immobilised in a stereotactic frame and a spinal canula was introduced in cisterna magna for the inoculation of 1×10^5 CFU pneumococci. After the bacterial inoculation, the rabbit was put back into its cage with access to food and water for another 8 hours.
The rabbit was re-anaesthetized with urethan 3.5 ml/kg ([…] 50%, 1.75 g/kg) s.c. at 7.30 a.m. A venous catheter was applied in the left ear-vein and Mebumal approx. 0.5-1 ml (Pentobarbital 50 mg/ml) i.v. was infused slowly until the rabbit was asleep and deeply anaesthetized. A three-way tap was connected to the venous catheter and syringes containing pentobarbital for supplemental anaesthetics and isotonic NaCl and heparin 1 Ul/ml for flushing were connected to the tap. Rabbits were observed every half hour. When the need for supplemental anaesthesia arose, additional 0.2 ml Mebumal (Pentobarbital 50 mg/ml) was given. During the experiment observations and anaesthetics were recorded in the scheme of the laboratory animal-department and in the book of the Laboratory Animal Inspection.
An arterial canula was applied in the artery of the right ear and used for blood-sampling throughout the experiment. A bolt was fastened to the turnbuckle embedded in the acrylic helmet, and the rabbit's head was fixed in a stereotactic frame. The rabbit remained fixed throughout the experiment.
Cisterna magna was punctured with a spinal-canula, fastened to the stereotactic frame. The canula was left in place throughout the experiment and used for CSF-sampling.

In assay [2] the test system is Streptococcus pneumoniae (1395). The assay is described as follows: Minimum inhibitory concentration (MIC) against Streptococcus pneumoniae (1395). In kind it is cell-based. To be noted: penicillin-resistant serotype 9V, read-out: minimium inhibitory concentration (MIC).
Description: as §1
The synthetic defensin used in the experiment is a polypeptide having the amino acid sequence shown in SEQ ID NO: 1.

[3] abbreviates: time 0 hours (normalized start).

`CO/N=C(\C(=O)N[C@@H]1C(=O)N2C(C(=O)O)=C(CSc3nc(=O)c(=O)[nH]n3C)CS[C@H]12)c1csc(N)n1` [Ceftriaxone]: the “reduction in bacterial burden in the cerebrospinal fluid (Δ log CFU), Average” value in assay [1] (setting [3]) is reported as 0.00 Δ log CFU; in assay [1] (time 3 hours), −2.12 Δ log CFU; in assay [1] (time 5 hours), −2.98 Δ log CFU; in assay [1] (time 10 hours) it was −4.18 Δ log CFU. In addition, the “reduction in bacterial burden in the cerebrospinal fluid (Δ log CFU)” value is 0.00 Δ log CFU in assay [1] (setting [3]); −2.26 Δ log CFU and −2.11 Δ log CFU and −2.53 Δ log CFU and −1.58 Δ log CFU in assay [1] (time 3 hours); −3.28 Δ log CFU and −2.77 Δ log CFU and −3.72 Δ log CFU and −2.14 Δ log CFU in assay [1] (time 5 hours); −5.16 Δ log CFU and −3.57 Δ log CFU and −4.32 Δ log CFU and −3.67 Δ log CFU in assay [1] (time 10 hours). In addition, the “bacterial burden in the cerebrospinal fluid” value in assay [1] (time 0 hours (start of treatment), Ceftriaxone 125 mg/kg at 0 h) is recorded as 3,480,000 CFU/ml; in assay [1] (time 3 hours, Ceftriaxone 125 mg/kg at 0 h), 92,500 CFU/ml; in assay [1] (time 5 hours, Ceftriaxone 125 mg/kg at 0 h), 25,000 CFU/ml; in assay [1] (time 10 hours, Ceftriaxone 125 mg/kg at 0 h) it was 750 CFU/ml; in assay [1] (time −10 hours (before treatment), Ceftriaxone group) it was 240,000 CFU/ml. Also, in assay [2], the MIC was found to be 0.5 µg/mL (≈ 0.902 µM).
